{"source": "patent US20150366839A1", "about": "“Schisantherin A for the treatment of neurodegenerative diseases” (priority 2014, published 2015)", "key": {"ERK1/2": {"test_system": "ERK1/2", "assay": "ERK phosphorylation after 6-OHDA, Western blot", "format": "cell-based, Human", "protocol": "After treatment, SH-SY5Y cells were washed three times with PBS and then lysis with RIPA lysis buffer containing 1% PMSF and 1% Protease Inhibitor Cocktail and incubated for 30 min on ice. Cell lysates were centrifuged at 12,500 g for 20 min at 4° C. The supernatant was separated and the amount of protein was determined using the BCA protein assay kit (Thermo Scientific Pierce, USA). Protein samples (30 μg) were separated by SDS-PAGE (10% (w/v)) polyacrylamide gel and then transferred to a polyvinylidene difluoride (PVDF) membrane (Bio-Rad, Hercules, Calif.). Subsequently, the membrane was blocked with 5% (v/v) non-fat milk in PBST (PBS containing 0.1% Tween 20) for 1 h at room temperature. The blots were incubated overnight at 4° C. with primary antibodies. After three washes with PBST, the membranes were incubated with horseradish peroxidase-conjugated secondary antibodies (1:2000) in PBST with 5% non-fat milk for 1 h at room temperature. After repeated washes, proteins were visualized with an ECL advanced western blotting detection kit. Photographs of protein bands were taken by a Molecular Imager ChemiDoc XRS (Bio-Rad, Hercules, Calif.). Quantitative assessment of protein bands was done with Gel Doc™ XRS equipped with Quantity One software. […]"}, "Akt": {"test_system": "Akt", "assay": "p-Akt level after 6-OHDA, Western blot", "format": "cell-based, Human", "protocol": "After treatment, SH-SY5Y cells were washed three times with PBS and then lysis with RIPA lysis buffer containing 1% PMSF and 1% Protease Inhibitor Cocktail and incubated for 30 min on ice. Cell lysates were centrifuged at 12,500 g for 20 min at 4° C. The supernatant was separated and the amount of protein was determined using the BCA protein assay kit (Thermo Scientific Pierce, USA). Protein samples (30 μg) were separated by SDS-PAGE (10% (w/v)) polyacrylamide gel and then transferred to a polyvinylidene difluoride (PVDF) membrane (Bio-Rad, Hercules, Calif.). Subsequently, the membrane was blocked with 5% (v/v) non-fat milk in PBST (PBS containing 0.1% Tween 20) for 1 h at room temperature. The blots were incubated overnight at 4° C. with primary antibodies. After three washes with PBST, the membranes were incubated with horseradish peroxidase-conjugated secondary antibodies (1:2000) in PBST with 5% non-fat milk for 1 h at room temperature. […] Quantitative assessment of protein bands was done with Gel Doc™ XRS equipped with Quantity One software.\nThe inventors also investigated the contribution of the Akt pathway in the neuroprotective effects of SchiA. The inventors measured phosphorylation-Akt (p-Akt) levels after pre-treated with 60 μM SchiA for 12 h and then exposed to 400 μM 6-OHDA for another 4 h (FIGS. 6A and 6B). […]"}, "[1]": {"conditions": "60 μM 12 h, then 400 μM 6-OHDA 4 h"}}, "data": [{"smiles": "COc1cc2c(c(OC)c1OC)-c1c(cc3c(c1OC)OCO3)C[C@H](C)[C@](C)(O)[C@H]2OC(=O)c1ccccc1", "note": "[SchiA, Schisantherin A]", "values": [{"measurement": "6-OHDA-induced reduction in ERK1/2 phosphorylation", "setting": "ERK1/2; [1]", "value": "prevented the reduction in ERK1/2 phosphorylation"}, {"measurement": "phosphorylated ERK1/2 level, compound alone", "setting": "ERK1/2; 60 μM, without 6-OHDA", "value": "did not change"}, {"measurement": "6-OHDA-induced reduction in p-Akt level", "setting": "Akt; [1]", "value": "prevented the reduction in p-Akt level"}, {"measurement": "p-Akt level, compound alone", "setting": "Akt; 60 μM, without 6-OHDA", "value": "did not change"}]}]}
